In US20160115200A1, “New Use for JNK Inhibitor Molecules for Treatment of Various Diseases” (XIGEN INFLAMMATION LTD., priority 2013, published 2016):
Square brackets hold non-standard residues; d marks the D form. Peptide text beside a SMILES is read from it.

Key:
[1] = tested on: established type II collagen arthritis in rats
[2] = tested on: mouse model of scopolamine-induced dry eye; experiment: Scopolamine-induced dry eye in mice (TBUT, PRTT, histopathology); type: in vivo; conditions: for TBUT mean nadir: TID topical ocular
Source text: The objective of this study was to assess the effects of two different compounds, the all-D-retro-inverso JNK-inhibitor (poly-)peptide of SEQ ID NO: 197 and the JNK inhibitor (poly-)peptide of SEQ ID NO: 172, at three dose levels in a mouse model of scopolamine-induced dry eye.
The study consisted of a total of 9 groups of female C57BL/6 mice, comprising 8 groups of 12 mice each and an additional group of 4 mice. Bilateral short-term dry eye was induced by a combination of scopolamine hydrobromide (Sigma-Aldrich Corp., St. Louis, Mo.) injection (subcutaneous (SC), four times daily, 0.5 mg/dose, Days 0-21) and by exposing mice to the drying environment of constant air draft. […] Mice of Group 9 were maintained as un-induced, (no dry eye) untreated controls.
During the in-life (treatment) period, clinical observations were recorded once daily; slit-lamp examination (SLE) with corneal fluorescein staining, tear break-up time test (TBUT), and phenol red thread test (PRTT) were performed three times per week. Necropsies were performed on Day 22; eyes, eye lids, conjunctivae, and lacrimal glands were collected from both eyes of each animal. Tissues from the right eyes (oculus dexter, OD) were fixed and then evaluated microscopically. Tissues from the left eyes (oculus sinister; OS) were flash-frozen in liquid nitrogen and stored frozen at −80° C. for possible subsequent analyses.
The TBUT test was conducted three times weekly by measuring the time elapsed in seconds between a complete blink after application of fluorescein to the cornea and the appearance of the first random dry spot in the tear film. […] At least ninety seconds later, corneal epithelial damage was graded using a slit-lamp with a cobalt blue filter after another drop of 0.1% fluorescein was reapplied to the cornea; the cornea then was scored per the Draize ocular scale.
Tear production was measured three times a week in both eyes using PRTT test strips (Zone-Quick; Menicon, Nagoya, Japan). Prior to the first treatment of the day, a thread was applied to the lateral canthus of the conjunctival fornix of each eye for 30 seconds under slit-lamp biomicroscopy. Tear migration up the tread (i.e., the length of the wetted cotton thread) was measured using a millimeter scale.
At necropsy on Day 22, both eyes from each animal, including the globes, lacrimal glands, eyelids, and conjunctivae, were excised. The right eye and associated tissues were fixed by overnight submersion in modified Davidson's solution followed by transfer to 10% neutral buffered formalin (NBF). The fixed tissues of the right eye were dehydrated, embedded in paraffin, sectioned at 3 to 5-μm thicknesses, and slide-mounted tissues were stained with hematoxylin and eosin (H & E). Stained slides were evaluated via light microscopy. Detailed and complete histopathologic assessment was conducted on all parts of the eye, with at least two section levels being examined histopathologically for each right eye. Special attention was paid to the cornea, epithelia (including goblet cells) of the conjunctiva and cornea, as well as the lacrimal gland. These tissues were scored for injury based upon a 0-4 scale, with 0 being normal, 1 being minimal, 2 being mild, 3 being moderate, and 4 being severe. For each cornea, scores were based on corneal epithelium thickness, and corneal inflammation. Conjunctivae were scored for erosion and inflammation as well as presence or absence of goblet cells.

[3] = tested on: endotoxins-induced uveitis albino rat model; experiment: Endotoxins-induced uveitis (EIU), single intravenous injection, clinical scoring 24 h after LPS; type: in vivo; parameters: key to EIU clinical score, median: clinical score per eye, 0 to 4 scale; conditions: for EIU clinical score, mean±SEM / EIU clinical score, median: 24 hours after LPS
Procedure: The aim of this study was to determine the effects of single intravenous injections of SEQ ID NO: 172 (0.015, 0.18, and 1.80 mg/kg) on the inflammatory response in an endotoxins-induced uveitis albino rat model and to compare these affects to those obtained with prior art JNK inhibitor of SEQ ID NO: 197 (2 mg/kg). As a further control served phosphate sodic dexamethasone.
Sixty (60) male Lewis rats were randomly divided into six (6) groups of ten (10) animals each. EIU was induced by footpad injection of lipopolysaccharide (LPS, 1 mg/kg). NaCl (0.9%), SEQ ID NO: 197 at 2 mg/kg and SEQ ID NO: 172 at three concentrations (1.80 mg/kg, 0.18 mg/kg and 0.015 mg/kg) were administered by intravenous injection. Phosphate sodic dexamethasone (20 μg/eye) was administered by sub-conjunctival injection in both eyes. 24 hours after LPS injection, inflammatory response was evaluated by clinical scoring.
The intensity of clinical ocular inflammation was scored on a scale from 0 to 4 for each eye: […]

human whole blood = experiment: Cytokine release in human whole blood stimulated 3 days with PHA-L or CD3/CD28 antibodies; type: cell-based; conditions: human whole blood, 1, 3, 10 μM
Procedure: Whole blood from human healthy volunteers was collected using a venipuncture connected to a pre-labeled vacuum tube containing sodium citrate. Tubes are gently mixed by inversion 7-8 times; and are then kept at RT until stimulation. 350 μl of RPMI+P/S were added into 1.2 ml-96-well plate. 10 times concentrated of SEQ ID NO: 172 was prepared in RPMI+P/S (50 μl per well). 50 μl was added into 1.2 ml-96 well plates. 50 μl of whole blood was then added in each well where either medium alone or JNK inhibitor has been previously added. Whole blood was incubated at 37° C., 5% CO2 for 60 min. 50 μl/well of ligands diluted in RPMI+P/S was prepared, corresponding to the final dilution 10 times concentrated. After 60 min of incubation, ligand was added; wells were then mixed by pipetting up and down the blood. Whole blood was incubated for 3 days at 37° C. (wells were mixed by pipetting each well up and down once per day). At the end of incubation, plates were mixed and then centrifuged at 2500 rpm, 4° C. for 15 min in a pre-cooled centrifuge. Cytokine were then measured using standard Elisa kits. Results are expressed as pg/ml of supernatant of the measured cytokine.
A similar experiment was carried out with slight modifications. In the case of […] stimulation, CD3 antibody was coated at 2 μg/mL in PBS overnight at 4° C. The day of experiment, wells were washed three times with PBS and left in PBS until use at 37° C. CD28 antibody was added 1 h after SEQ ID NO: 172 at final concentration of 2 μg/mL; supernatants were collected after 3 days of stimulation.

[4] = SEQ ID NO: 172 0.01-5 mg/kg IV QD

CC(C)C[C@H](NC(=O)[C@H](CC(N)=O)NC(=O)[C@H](CC(C)C)NC(=O)[C@@H](NC(=O)[C@@H](C)NC(=O)[C@@H]1CCCN1C(=O)[C@H](CCCNC(=N)N)NC(=O)[C@@H](CCCCN)NC(=O)[C@@H]1CCCN1C(=O)[C@H](CCCNC(=N)N)NC(=O)[C@@H](CCCNC(=N)N)NC(=O)[C@H](CCCNC(=N)N)NC(=O)[C@H](CCCNC(=N)N)NC(=O)[C@H](CCC(N)=O)NC(=O)[C@@H](CCCNC(=N)N)NC(=O)[C@H](CCCNC(=N)N)NC(=O)[C@H](CCCCN)NC(=O)[C@H](CCCCN)NC(=O)[C@H](N)CCCNC(=N)N)[C@@H](C)O)C(=O)N[C@H](Cc1ccccc1)C(N)=O [SEQ ID NO: 172, rKKRrQRRrRPkRPaTLNLf] (H-[dR]KKR[dR]QRR[dR]RP[dK]RP[dA]TLNL[dF]-NH2)
daily ankle diameter measurements vs disease controls ([1]; 5 mg/kg IV QD, p<0.05 days 4-12): significantly (p<0.05 by 2-way RM ANOVA) reduced toward normal
adverse effect on organ weights ([1]; IV QD days 1-14): no adverse effect on organ weights
relative spleen weights [1, 4]: not significantly affected
relative thymus weights [1, 4]: not significantly affected
TBUT mean nadir ([2]; Day 7, high-dose 0.6% (Group 7)): 6.7 ± 0.3 s
TBUT mean nadir ([2]; Day 7, low-dose 0.05% (Group 5)): 6.6 ± 0.4 s
TBUT mean nadir ([2]; Day 7, mid-dose 0.2% (Group 6)): 6.7 ± 0.4 s
TBUT mean peak ([2]; Day 9, high-dose 0.6% (Group 7)): 9.9 ± 0.8 s
TBUT mean peak ([2]; Day 9, low-dose 0.05% (Group 5)): 8.0 ± 0.4 s
TBUT mean peak ([2]; Day 9, mid-dose 0.2% (Group 6)): 10.0 ± 0.7 s
PRTT, aqueous tear production compared with cyclosporine ([2]; Day 21, mid and high-dose (Groups 6 and 7)): therapeutic effects similar to cyclosporine
TBUT means compared with vehicle group ([2]; low, medium and high-dose, Groups 2, 3 and 4): above the vehicle group
aqueous tear production (PRTT) compared with vehicle ([2]; low, mid or high-dose SEQ ID NO: 172): significantly more aqueous tears compared to vehicle-treated animals
histological cornea scores compared with cyclosporine group ([2]; mid and high-dose SEQ ID NO: 172 (Groups 6, 7), high-dose SEQ ID NO: 197 (Group 4)): not significantly different than the cyclosporine group scores
EIU clinical score, mean±SEM ([3]; 0.015 mg/kg i.v.): 2.3±0.3
EIU clinical score, median ([3]; 0.015 mg/kg i.v.): 2
EIU clinical score, mean±SEM ([3]; 0.18 mg/kg i.v.): 2.4±0.3
EIU clinical score, median ([3]; 0.18 mg/kg i.v.): 2
EIU clinical score, mean±SEM ([3]; 1.80 mg/kg i.v.): 2.1±0.3
EIU clinical score, median ([3]; 1.80 mg/kg i.v.): 2
endotoxin-induced inflammation in the anterior chamber ([3]; intravenously injected at 0.015, 0.18, 1.80 mg/kg): also reduced the endotoxin-induced inflammation in the anterior chamber
CD3/CD28-induced TNF-α release (human whole blood; CD3+/-CD28 antibodies 2 μg/mL): reduce the CD3/CD28-induced TNF-α release in a dose-dependent manner
PHA-L-induced IL-2 release (human whole blood; PHA-L 5 μg/mL): reduce the PHA-L-induced IL-2 release in a dose-dependent manner
PHA-L-induced TNF-α release (human whole blood; PHA-L 5 μg/mL): reduce the PHA-L-induced TNF-α release in a dose-dependent manner
